Read-outs that look alike come from different tables or passages of the source.
How the values were obtained:
[1] = tested on: subject suffering from autism or an autism spectrum disorder; assay: Clinical observation of symptoms (physician, parents, educators); format: in vivo, human
[2] = following three days of oral chelation with DMSA; cited from earlier work
[3] = Description: (§1) The toxic metals were reported as μg/g creatinine in order to account for urine dilution variations.
as §1, §1, §1

[4] = tested on: rats of the JCL-SD strain; conditions: 0.3 to 2 mg/kg intravenously; male more susceptible; cited from earlier work
[5] = tested on: neuronal damage in tissue culture; conditions: cited from earlier work
neurons = conditions: nanomolar (nM) to micromolar (μM) concentrations, within hours of exposure; cited from earlier work
[6] = cited from earlier work
susceptible mouse strain = conditions: weight- and age-adjusted 1990s US immunization schedule; cited from earlier work
chick embryo = conditions: single 50 μg of mercury dose; cited from earlier work
[7] = Child X (autistic person), urine collected Nov. 5, 2000, during DMSA treatment, creatinine 43.4 mg/dL
[8] = Child X, urine collected Sep. 30, 2001, during DMSA treatment, creatinine 54 mg/dL
[9] = Child Y (autistic person), urine collected Jun. 29, 2002, during DMSA treatment, creatinine 6.9 mg/dL
[10] = Child Y, urine collected Dec. 24, 2002, during DMSA treatment, creatinine 8.6 mg/dL

Row | Molecule | Toxic metals in urine, Results [3, 7] | Toxic metals in urine, Results [3, 8] | Toxic metals in urine, Results [3, 9] | Toxic metals in urine, Results [3, 10] | other results
1 | O=C(O)[C@@H](S)[C@@H](S)C(=O)O [DMSA, meso-2,3-dimercaptosuccinic acid] |  |  |  |  | Clinical improvement as a result of DMSA treatment ([1]; Child X): some improvement; Improvement in autism on DMSA treatment ([1]; Child Y): did not show significant improvement; Urinary mercury concentration, autistic children versus matched normal controls [2]: approximately 6 fold; Mercury in urine on DMSA treatment ([3]; Child X, DMSA Oct. 21, 2000 through Feb. 3, 2002): spilled toxic levels of mercury in their urine; Mercury in urine on DMSA treatment ([3]; Child Y, DMSA Jun. 26, 2002 to May 2, 2003): spilled toxic levels of mercury in their urine
2 | [Cl][Hg][Cl] [mercuric chloride] |  |  |  |  | Renal toxicity [4]: acute renal tubular necrosis was produced
3 | C[C@]12CC[C@H]3[C@@H](CCC4=CC(=O)CC[C@@]43C)[C@@H]1CC[C@@H]2O [testosterone] |  |  |  |  | Effect of concurrent exposure on mercury induced neuronal damage [5]: exacerbated
4 | C[CH2][Hg][S]c1ccccc1C(=O)[O-].[Na+] [thimerosal] |  |  |  |  | Effects on neurons (neurons): inducing neuronal death, neurodegeneration, membrane damage, and DNA damage; Passage of the blood-brain barrier ([6]; infant monkeys, doses comparable to the US dosing schedule): crosses the blood-brain barrier; Half-life of inorganic mercury in the brain ([6]; infant monkeys): > 120 days; Maximum mercury concentration observed in the brain ([6]; infant monkeys): approximately 50 parts-per-billion; Overall half-life of mercury in the brain ([6]; infant monkeys): approximately 24 days; Inorganic mercury in the brains ([6]; thimerosal-treated infant monkeys, average following the dosing schedule): 16 parts-per-billion; Neurotoxic effects (susceptible mouse strain): autistic symptoms in a susceptible mouse strain; Fetal lethality and teratogenicity compared to controls (chick embryo): significant fetal lethality and teratogenecity
5 | Aluminum | 26 μg/g creatinine | 14 μg/g creatinine | <dl* | <dl* | 
6 | Antimony | 0.4 μg/g creatinine | <dl* | <dl | <dl | 
7 | Arsenic | 98 μg/g creatinine | 37 μg/g creatinine | 31 μg/g creatinine | 23 μg/g creatinine | 
8 | Beryllium | <dl* | <dl | <dl | <dl | 
9 | Bismuth | 0.8 μg/g creatinine | <dl | <dl | <dl | 
10 | Cadmium | 1.4 μg/g creatinine | 0.5 μg/g creatinine | <dl | 1.6 μg/g creatinine | 
11 | Lead | 12 μg/g creatinine | 8.6 μg/g creatinine | <dl | <dl | 
12 | Platinum | 0.2 μg/g creatinine | <dl | <dl | <dl | 
13 | Thallium | 0.2 μg/g creatinine | 0.2 μg/g creatinine | 0.9 μg/g creatinine | 0.6 μg/g creatinine | 
14 | Tungsten | <dl | 0.3 μg/g creatinine | <dl | 1.6 μg/g creatinine | 
15 | estrogen |  |  |  |  | Effect of concurrent exposure on mercury induced neuronal damage [5]: ameliorated

Source: patent publication US20070254314A1, “Methods of treating autism and autism spectrum disorders” (priority 2004, published 2007)
